Results reported in patent publication EP1175402B1, “PIPERIDINE DERIVATIVES USEFUL AS CCR5 ANTAGONISTS” (SCHERING CORPORATION, priority 1999, dated 2000).

Molecular target: T1, human CCR5 chemokine receptor (Homo sapiens, UniProt P51681)
T1 construct: expressed in transfected cells; host or cells: NIH 3T3 cells (murine), membranes
Test: CCR5 membrane binding assay (inhibition of 125I-RANTES binding)
Details: membranes from NIH 3T3 cells expressing the human CCR5 chemokine receptor, one hour incubation
Method: CCR5 Membrane Binding Assay:
A high throughput screen utilizing a CCR5 membrane binding assay identifies inhibitors of RANTES binding. This assay utilizes membranes prepared from NIH 3T3 cells expressing the human CCR5 chemokine receptor which have the ability to bind to RANTES, a natural ligand for the receptor. Using a 96-well plate format, membrane preparations are incubated with ^125I-RANTES in the presence or absence of compound for one hour. Compounds are serially diluted over a wide range of 0.001 ug/ml to 1 ug/ml and tested in triplicates. Reaction cocktails are harvested through glass fiber filters, and washed thoroughly. Total counts for replicates are averaged and data reported as the concentration required to inhibit 50 percent of total ^125I-RANTES binding.

T1 sequence (P51681 whole entry): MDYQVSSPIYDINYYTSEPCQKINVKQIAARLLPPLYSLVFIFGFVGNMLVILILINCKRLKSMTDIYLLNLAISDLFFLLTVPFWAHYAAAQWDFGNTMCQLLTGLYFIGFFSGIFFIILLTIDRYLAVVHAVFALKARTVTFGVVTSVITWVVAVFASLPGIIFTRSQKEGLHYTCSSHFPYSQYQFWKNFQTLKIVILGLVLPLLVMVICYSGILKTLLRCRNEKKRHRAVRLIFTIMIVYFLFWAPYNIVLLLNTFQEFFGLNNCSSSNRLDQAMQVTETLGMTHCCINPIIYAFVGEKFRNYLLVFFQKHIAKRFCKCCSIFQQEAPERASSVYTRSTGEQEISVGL

Compound	Ki [nM]
Cc1ncnc(C)c1C(=O)N1CCC(C)(N2CCC(C(Oc3ccccn3)c3ccc(Br)cc3)CC2)CC1 (single isomer, unassigned) [Example 4C]	0.5
Cc1ccnc(C)c1C(=O)N1CCC(C)(N2CCC(C(Oc3ccccn3)c3ccc(S(C)(=O)=O)cc3)CC2)CC1 (stereo not shown) [Example 2]	9.6
CCC(=O)OC(c1ccc(Br)cc1)C1CCN(C2(C)CCN(C(=O)c3c(C)cccc3C)CC2)CC1 (stereo not shown) [Example 1B]	14
CO/N=C(/c1ccc(OC(F)(F)F)cc1)C1CCN(C2(C)CCN(C(=O)c3c(C)cccc3C)CC2)CC1 [Example 7U]	62.5
